Measured values reported in US20040102423A1, “Spironolactone and angiotensin II antagonist combination therapy for treatment of congestive heart failure” (G.D. Searle & Co., priority 1995, published 2004).

Experiments:
[1] = target: angiotensin II AT1 receptor; experiment: Assay A: Angiotensin II binding activity, rat uterine membrane preparation, 125I-AII displacement
rabbit aortic rings = experiment: Assay B: In vitro vascular smooth muscle response for AII (antagonist activity, pA2); type: cell-based; settings: Oryctolagus cuniculus, two values in a cell = two determinations
How it was run: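 Endothelium-denuded thoracic aortic rings from male New Zealand white rabbits, in oxygenated Krebs at 37° C. under ~1 g tension, gave isometric AII contraction curves (3×10^−10 to 1×10^−5 M).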

pressor response to AII = experiment: Assay C: In vivo intragastric pressor assay response for AII antagonists; set-up: species or system Sprague-Dawley rats; settings: in vivo pressor response; for inhibition in vivo at 100 mg/kg / inhibition in vivo at 30 mg/kg / inhibition in vivo at 10 mg/kg / inhibition in vivo at 3 mg/kg: Rattus norvegicus; for inhibition in vivo at 30 mg/kg: read-out: Assay C Inhibition
[2] = intraduodenal, 100 mg/kg intraduodenally
[3] = intraduodenal, 30 mg/kg intraduodenally
[4] = intraduodenal, 3 mg/kg intraduodenally

Row | SMILES | IC50 [1] [nM] | Kb (rabbit aortic rings) [nM] | also measured
1 | C[C@]12C=CC(=O)C=C1[C@@H]1CC1[C@H]1[C@@H]3CC[C@@]4(CCC(=O)O4)[C@@]3(C)CC3O[C@]312 (some centres unmarked) [Compound 6] | 1300 | 282 | inhibition in vivo at 100 mg/kg (pressor response to AII; [2]): 90%; Assay C Duration (pressor response to AII; 100 mg/kg intraduodenally): 120 min
2 | COC(=O)CC[C@]1(O)CC[C@H]2[C@@H]3C4CC4C4=CC(=O)CC[C@]4(C)[C@]34OC4C[C@@]21C (some centres unmarked) [Compound 7] | 84 | 9.77 | inhibition in vivo at 30 mg/kg (pressor response to AII; [3]): 90%; Assay C Duration (pressor response to AII; 30 mg/kg intraduodenally): 130 min
3 | CCCCc1nc(Cl)n(Cc2ccc(-c3ccccc3-c3nnn[nH]3)cc2)n1 [Compound 20] | 78000 | 1290 | inhibition in vivo at 100 mg/kg (pressor response to AII; [2]): 10%; Assay C Duration (pressor response to AII; 100 mg/kg intraduodenally): 45 min
4 | CCCCc1nc(CCC)n(Cc2ccc(-c3ccccc3-c3nnn[nH]3)cc2)n1 [Compound 26] | 3.2 | 0.148 | inhibition in vivo at 10 mg/kg (pressor response to AII; po, 10 mg/kg intragastrically): 50%; Assay C Duration (pressor response to AII; 10 mg/kg intragastrically): >180 min
5 | CCCCc1ncn(Cc2ccc(-c3ccccc3C(=O)O)cc2)n1 [Compound 30] | 22 | 18.6 | inhibition in vivo at 30 mg/kg (pressor response to AII; [3]): 50%; Assay C Duration (pressor response to AII; 30 mg/kg intraduodenally): >180 min
6 | CCCCc1nn(CC(OCc2ccccc2)c2ccccc2)c(=O)n1Cc1ccc(-c2ccccc2-c2nn[nH]n2)cc1 (centres unmarked) [Compound 108] | 720 | 5010 | inhibition in vivo at 100 mg/kg (pressor response to AII; [2]): 45%; Assay C Duration (pressor response to AII; 100 mg/kg intraduodenally): 90 min
7 | CCCCc1nn(CC(O)c2cc(OC)ccc2OC)c(=O)n1Cc1ccc(-c2ccccc2-c2nn[nH]n2)cc1 (centres unmarked) [Compound 109] | 250 | 50.1 | inhibition in vivo at 30 mg/kg (pressor response to AII; [3]): 50%; Assay C Duration (pressor response to AII; 30 mg/kg intraduodenally): 30 min
8 | CCCCc1nn(CCCCC(=O)OC)c(=O)n1Cc1ccc(-c2ccccc2-c2nn[nH]n2)cc1 [Compound 111] | 45 | 1 | inhibition in vivo at 30 mg/kg (pressor response to AII; [3]): 87%; Assay C Duration (pressor response to AII; 30 mg/kg intraduodenally): 160 min
9 | CCCCc1nn(C(C)(C)C(=O)c2ccccc2)c(=O)n1Cc1ccc(-c2ccccc2-c2nn[nH]n2)cc1 [Compound 113] | 12 | 3.98 | inhibition in vivo at 10 mg/kg (pressor response to AII; po, 10 mg/kg intragastrically): 60%; Assay C Duration (pressor response to AII; 10 mg/kg intragastrically): 180 min
10 | CCCCc1nn(CC2CC2)c(=O)n1Cc1ccc(-c2ccccc2-c2nn[nH]n2)cc1 [Compound 115] | 11 | 6.31 | inhibition in vivo at 3 mg/kg (pressor response to AII; po, 3 mg/kg intragastrically): 40%; Assay C Duration (pressor response to AII; 3 mg/kg intragastrically): >240 min
11 | CCCCc1nn(CC(OCC(=O)OCC)c2ccccc2)c(=O)n1Cc1ccc(-c2ccccc2-c2nn[nH]n2)cc1 (centres unmarked) [Compound 118] | 37 | 0.617 | inhibition in vivo at 10 mg/kg (pressor response to AII; intraduodenal, 10 mg/kg intraduodenally): 70%; Assay C Duration (pressor response to AII; 10 mg/kg intraduodenally): 120 min
12 | CCCCc1nc2cnncc2n1Cc1ccc(-c2ccccc2C(=O)O)cc1 [Compound 119] | 16 | 0.617 | inhibition in vivo at 3 mg/kg (pressor response to AII; po, 3 mg/kg intragastrically): 20%; Assay C Duration (pressor response to AII; 3 mg/kg intragastrically): 60 min
13 | CCCCc1nc2c(O)nnc(O)c2n1Cc1ccc(-c2ccccc2C(=O)O)cc1 [Compound 120] | 25 | 0.891 | inhibition in vivo at 10 mg/kg (pressor response to AII; po, 10 mg/kg intragastrically): 80%; Assay C Duration (pressor response to AII; 10 mg/kg intragastrically): 240 min
14 | CCCCc1cn(C2CCCCC2)c(=O)n1Cc1ccc(-c2ccccc2-c2nnn[nH]2)cc1 [Compound 147] | 5.8 | 2510 | inhibition in vivo at 3 mg/kg (pressor response to AII; [4]): 74%; Assay C Duration (pressor response to AII; 3 mg/kg intraduodenally): 5 to 10 min
15 | CCCCc1c(C)n(CCCC)c(=O)n1Cc1ccc(-c2ccccc2-c2nnn[nH]2)cc1 [Compound 148] | 0.87 | 1580 | inhibition in vivo at 3 mg/kg (pressor response to AII; [4]): 92%; Assay C Duration (pressor response to AII; 3 mg/kg intraduodenally): 20 to 30 min
16 | CCCCc1nc(CCCC)n(Cc2ccc(-n3c(Br)ccc3-c3nnn[nH]3)cc2)n1 [Compound 152] | 150 | 34.7 | inhibition in vivo at 3 mg/kg (pressor response to AII; po, 3 mg/kg intragastrically): 10%; Assay C Duration (pressor response to AII; 3 mg/kg intragastrically): 140 min
17 | CCCCc1nc(Cl)c(Cl)n1Cc1ccc(-n2cccc2C(=O)O)cc1 [Compound 158] | 54 | 5.89 | inhibition in vivo at 3 mg/kg (pressor response to AII; po, 3 mg/kg intragastrically): 30%; Assay C Duration (pressor response to AII; 3 mg/kg intragastrically): >180 min
